{"source": "patent US20250357519A1", "about": "“APPLICATIONS OF O2-INSENSITIVE FORMATE DEHYDROGENASE” (UNIVERSITY OF MARYLAND, BALTIMORE, priority 2022, published 2025)", "key": {"DvH-FDH2": {"biological_target": "DvH-FDH2 (Nitratidesulfovibrio vulgaris (Desulfovibrio vulgaris Hildenborough), UniProt Q728X0)", "type": "biochemical"}, "[1]": {"biological_target": "T1, Desulfovibrio vulgaris Hildenborough (DvH) FDH2, recombinant Strep-tag II-tagged (FDH2^Rec), large subunit DVU2482 SEQ ID NO: 31, small subunit DVU2481 SEQ ID N (Nitratidesulfovibrio vulgaris, UniProt Q728X0)", "T1 sequence (Q728X0 36-1003)": "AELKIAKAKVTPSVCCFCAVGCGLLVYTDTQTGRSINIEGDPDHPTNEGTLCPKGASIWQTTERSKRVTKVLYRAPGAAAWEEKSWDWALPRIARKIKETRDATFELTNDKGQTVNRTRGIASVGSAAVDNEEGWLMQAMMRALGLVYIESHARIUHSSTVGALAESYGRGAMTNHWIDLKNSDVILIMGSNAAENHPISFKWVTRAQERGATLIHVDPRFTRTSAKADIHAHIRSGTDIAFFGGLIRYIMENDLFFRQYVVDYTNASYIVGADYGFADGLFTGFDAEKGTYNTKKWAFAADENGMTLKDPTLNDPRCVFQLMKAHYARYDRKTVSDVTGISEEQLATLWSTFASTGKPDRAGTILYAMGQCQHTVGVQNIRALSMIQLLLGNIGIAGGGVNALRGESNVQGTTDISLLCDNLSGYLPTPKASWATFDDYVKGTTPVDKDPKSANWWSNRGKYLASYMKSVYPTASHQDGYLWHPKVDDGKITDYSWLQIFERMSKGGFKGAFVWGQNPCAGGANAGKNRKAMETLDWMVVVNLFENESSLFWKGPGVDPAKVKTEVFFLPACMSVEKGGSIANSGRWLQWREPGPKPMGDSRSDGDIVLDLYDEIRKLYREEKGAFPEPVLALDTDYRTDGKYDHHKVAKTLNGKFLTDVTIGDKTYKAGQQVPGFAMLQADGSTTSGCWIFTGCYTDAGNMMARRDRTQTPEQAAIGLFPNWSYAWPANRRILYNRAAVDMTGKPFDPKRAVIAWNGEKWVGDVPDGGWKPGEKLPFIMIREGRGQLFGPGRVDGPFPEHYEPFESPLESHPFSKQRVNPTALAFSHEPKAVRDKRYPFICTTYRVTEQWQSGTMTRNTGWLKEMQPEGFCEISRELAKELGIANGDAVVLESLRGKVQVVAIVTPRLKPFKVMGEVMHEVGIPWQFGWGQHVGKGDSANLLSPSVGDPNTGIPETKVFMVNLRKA", "T1 sequence (Q728X1 1-260 partner)": "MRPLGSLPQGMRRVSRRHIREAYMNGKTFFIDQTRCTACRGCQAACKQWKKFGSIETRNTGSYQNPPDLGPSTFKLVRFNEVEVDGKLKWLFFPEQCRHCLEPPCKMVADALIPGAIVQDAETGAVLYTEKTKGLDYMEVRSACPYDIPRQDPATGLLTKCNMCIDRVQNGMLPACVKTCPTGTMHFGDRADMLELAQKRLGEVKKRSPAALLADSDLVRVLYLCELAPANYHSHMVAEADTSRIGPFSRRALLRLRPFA", "assay": "Inhibition of PES/DCPIP reduction by DvH-FDH2", "type": "biochemical", "set-up": "some rows (FDH2^WT, da Silva et al.) are the native enzyme", "conditions": "anaerobic and aerobic", "method": "FIG. 22. Effect of sodium azide on PES/DCPIP reduction by DvH-FDH2. Panel (A) illustrates raw anaerobic kinetics, Panel (B) illustrates data from Panel (A) converted to reduced DCPIP concentration, Panel (C) illustrates 4-parameter sigmoidal fit of Panel (B), Panel (D) illustrates aerobic raw traces, Panel (E) illustrates data from Panel (D) converted to reduced DCPIP concentration, and Panel (F) illustrates a 4-parameter sigmoidal fit of […]. IC50 values were in the range of 0.8 mM.\nFIG. 23. Effect of sodium nitrate on PES/DCPTP reduction by DvH-FDH2. Panel (A) illustrates raw anaerobic kinetics, Panel (B) illustrates data from Panel (A) converted to reduced DCPTP concentration, Panel (C) illustrates raw aerobic kinetics, and Panel (D) illustrates data from Panel (C) converted to reduced DCPTP concentration.\nTo test this hypothesis, activity assays were independently pursued with the PES/DCPIP pair. As has been observed for other dehydrogenases^91, PES served as an efficient electron acceptor for DvH-FDH2 (FIG. 19(A)). […]\nIn this dye-linked assay, PES (Em,7=+65 mV) serves as the primary electron acceptor. […] Assays were performed using a UV-2600i spectrophotometer (Shimadzu Life Sciences) equipped with T2 Peltier/stirrer accessory (Quantum) and monitored at 600 nm. […]"}}, "data": [{"smiles": "O=[N+]([O-])[O-].[Na+]", "note": "[nitrate, sodium nitrate]", "values": [{"measurement": "Inhibition of DvH-FDH2 compared with azide", "setting": "DvH-FDH2", "value": "far less effective"}, {"measurement": "inhibition relative to azide", "setting": "[1]", "value": "far less effective"}]}]}
